# Test system: bacterial strains
# Experiment: Potentiation/synergy antimicrobial assay (checkerboard, FICI) with antibiotics
# Assay type: cell-based
# Conditions: for MIC of antibiotic with 6442 at concn 0: 6442 0 μg/mL; for MIC of antibiotic with 6442 at concn 0.03: 6442 0.03 μg/mL; for MIC of antibiotic with 6442 at concn 0.0625: 6442 0.0625 μg/mL; for MIC of antibiotic with 8980 at conc 0: 8980 0 μg/mL; for MIC of antibiotic with 8980 at conc 1: 8980 1 μg/mL; for MIC of antibiotic with 8980 at conc 2: 8980 2 μg/mL; for MIC of antibiotic with 8980 at conc 4: 8980 4 μg/mL; for MIC of antibiotic with 8980 at conc 8: 8980 8 μg/mL; for MIC of antibiotic with 8981 at conc 0: 8981 0 μg/mL; for MIC of antibiotic with 8981 at conc 1: 8981 1 μg/mL; for MIC of antibiotic with 8981 at conc 2: 8981 2 μg/mL; for MIC of antibiotic with 8981 at conc 4: 8981 4 μg/mL; for MIC of antibiotic with 8981 at conc 8: 8981 8 μg/mL; for MIC of antibiotic with OctC4 at concn 0: OctC4 0 μg/mL; for MIC of antibiotic with OctC4 at concn 0.03: OctC4 0.03 μg/mL; for MIC of antibiotic with OctC4 at concn 0.0625: OctC4 0.0625 μg/mL; for MIC of antibiotic with OctC4 at concn 0.125: OctC4 0.125 μg/mL; for MIC of antibiotic with 6442 at concn 0.25: 6442 0.25 μg/mL
# Protocol: Potentiation/synergy antimicrobial assays were conducted in the same manner as the standard MICs described above, with the following modifications. Assays were performed in 384-well non-binding surface plates (NBS; Corning 3460) and in Cation-adjusted Mueller Hinton Broth (CA-MHB; BD, Cat. No. 212322) with a final assay volume of 50 μL once bacteria was added at 5×10^5 CFU/mL. Antibiotics and octapeptin compounds were plated in duplicate as a 2-fold concentration series, in a matrix checkerboard format. The bacterial cell density of the resultant assay plates after 18-20 h incubation at 37° C. was read by optical density 600 nm (OD600) using a Tecan M1000 Pro Spectrophotometer, and analysed for ≥90% growth inhibition compared to the growth control to determine active concentrations. Synergistic effect was calculated based on the fractional inhibitory concentration index (FICI) by the following equation, where synergy is deemed FICI 0.5: […]
structure (smiles),measurement,setting,value
"CN(C)c1ccc(O)c2c1C[C@H]1C[C@H]3[C@H](N(C)C)C(O)=C(C(N)=O)C(=O)[C@@]3(O)C(O)=C1C2=O [Minocycline, minocycline]",MIC of antibiotic with 6442 at concn 0,GN_007 E. coli ESBL,0.25 µg/mL
same,MIC of antibiotic with 6442 at concn 0.03,GN_007 E. coli ESBL,0.25 µg/mL
same,MIC of antibiotic with 6442 at concn 0.0625,GN_007 E. coli ESBL,0.125 µg/mL
same,MIC of antibiotic with 8980 at conc 0,GN_007 E. coli ESBL,0.25 µg/mL
same,MIC of antibiotic with 8980 at conc 1,GN_007 E. coli ESBL,0.125 to 0.25 µg/mL
same,MIC of antibiotic with 8980 at conc 2,GN_007 E. coli ESBL,0.125 µg/mL
same,MIC of antibiotic with 8980 at conc 4,GN_007 E. coli ESBL,0.06 to 0.125 µg/mL
same,MIC of antibiotic with 8980 at conc 8,GN_007 E. coli ESBL,0.06 to 0.125 µg/mL
same,MIC of antibiotic with 8981 at conc 0,GN_007 E. coli ESBL,0.25 µg/mL
same,MIC of antibiotic with 8981 at conc 1,GN_007 E. coli ESBL,0.25 µg/mL
same,MIC of antibiotic with 8981 at conc 2,GN_007 E. coli ESBL,0.125 to 0.25 µg/mL
same,MIC of antibiotic with 8981 at conc 4,GN_007 E. coli ESBL,0.03 to 0.125 µg/mL
same,MIC of antibiotic with 8981 at conc 8,GN_007 E. coli ESBL,0.03 to 0.125 µg/mL
same,MIC of antibiotic with OctC4 at concn 0,GN_007 E. coli ESBL,0.25 µg/mL
same,MIC of antibiotic with OctC4 at concn 0.03,GN_007 E. coli ESBL,0.25 µg/mL
same,MIC of antibiotic with OctC4 at concn 0.0625,GN_007 E. coli ESBL,0.125 to 0.25 µg/mL
same,MIC of antibiotic with OctC4 at concn 0.125,GN_007 E. coli ESBL,0.125 µg/mL
same,MIC of antibiotic with 8980 at conc 0,GN_019 A. baumannii CARB,4 µg/mL
same,MIC of antibiotic with 8981 at conc 0,GN_019 A. baumannii CARB,4 µg/mL
same,MIC of antibiotic with 8981 at conc 1,GN_019 A. baumannii CARB,2 to 16 µg/mL
same,MIC of antibiotic with 8981 at conc 2,GN_019 A. baumannii CARB,2 to 16 µg/mL
same,MIC of antibiotic with 6442 at concn 0,GN_045 K. pneumoniae NDM-1,32 µg/mL
same,MIC of antibiotic with 6442 at concn 0.03,GN_045 K. pneumoniae NDM-1,32 µg/mL
same,MIC of antibiotic with 6442 at concn 0.0625,GN_045 K. pneumoniae NDM-1,32 µg/mL
same,MIC of antibiotic with 8980 at conc 0,GN_045 K. pneumoniae NDM-1,32 µg/mL
same,MIC of antibiotic with 8981 at conc 0,GN_045 K. pneumoniae NDM-1,32 µg/mL
same,MIC of antibiotic with OctC4 at concn 0,GN_045 K. pneumoniae NDM-1,32 µg/mL
same,MIC of antibiotic with OctC4 at concn 0.03,GN_045 K. pneumoniae NDM-1,32 µg/mL
same,MIC of antibiotic with OctC4 at concn 0.0625,GN_045 K. pneumoniae NDM-1,32 µg/mL
same,MIC of antibiotic with OctC4 at concn 0.125,GN_045 K. pneumoniae NDM-1,32 µg/mL
same,MIC of antibiotic with 8980 at conc 0,GN_093 A. baumannii XDR/PmxR,8 µg/mL
same,MIC of antibiotic with 8981 at conc 0,GN_093 A. baumannii XDR/PmxR,8 µg/mL
same,MIC of antibiotic with 8981 at conc 1,GN_093 A. baumannii XDR/PmxR,4 to 32 µg/mL
same,MIC of antibiotic with 8981 at conc 2,GN_093 A. baumannii XDR/PmxR,2 to 32 µg/mL
same,MIC of antibiotic with 6442 at concn 0,GN_102 K. pneumoniae XDR/PmxR,32 µg/mL
same,MIC of antibiotic with 6442 at concn 0.03,GN_102 K. pneumoniae XDR/PmxR,16 µg/mL
same,MIC of antibiotic with 6442 at concn 0.0625,GN_102 K. pneumoniae XDR/PmxR,16 µg/mL
same,MIC of antibiotic with 8980 at conc 0,GN_102 K. pneumoniae XDR/PmxR,32 µg/mL
same,MIC of antibiotic with 8981 at conc 0,GN_102 K. pneumoniae XDR/PmxR,32 µg/mL
same,MIC of antibiotic with OctC4 at concn 0,GN_102 K. pneumoniae XDR/PmxR,32 µg/mL
same,MIC of antibiotic with OctC4 at concn 0.03,GN_102 K. pneumoniae XDR/PmxR,32 µg/mL
same,MIC of antibiotic with OctC4 at concn 0.0625,GN_102 K. pneumoniae XDR/PmxR,16 µg/mL
same,MIC of antibiotic with OctC4 at concn 0.125,GN_102 K. pneumoniae XDR/PmxR,16 µg/mL
same,MIC of antibiotic with 6442 at concn 0,GN_105 P. aeruginosa PmxR,8 µg/mL
same,MIC of antibiotic with 6442 at concn 0.03,GN_105 P. aeruginosa PmxR,4 µg/mL
same,MIC of antibiotic with 6442 at concn 0.0625,GN_105 P. aeruginosa PmxR,2 to 4 µg/mL
same,MIC of antibiotic with 6442 at concn 0.25,GN_105 P. aeruginosa PmxR,0.06 µg/mL
same,MIC of antibiotic with 8980 at conc 0,GN_105 P. aeruginosa PmxR,8 µg/mL
same,MIC of antibiotic with 8980 at conc 2,GN_105 P. aeruginosa PmxR,1 µg/mL
same,MIC of antibiotic with 8980 at conc 4,GN_105 P. aeruginosa PmxR,1 µg/mL
same,MIC of antibiotic with 8981 at conc 0,GN_105 P. aeruginosa PmxR,8 µg/mL
same,MIC of antibiotic with OctC4 at concn 0,GN_105 P. aeruginosa PmxR,8 µg/mL
same,MIC of antibiotic with OctC4 at concn 0.03,GN_105 P. aeruginosa PmxR,8 µg/mL
same,MIC of antibiotic with OctC4 at concn 0.0625,GN_105 P. aeruginosa PmxR,4 µg/mL
same,MIC of antibiotic with OctC4 at concn 0.125,GN_105 P. aeruginosa PmxR,4 µg/mL
same,MIC of antibiotic with 6442 at concn 0,GN_181 E. coli mcr-1,4 µg/mL
same,MIC of antibiotic with 6442 at concn 0.03,GN_181 E. coli mcr-1,4 µg/mL
same,MIC of antibiotic with 6442 at concn 0.125,"GN_181 E. coli mcr-1, 6442 0.125 μg/mL",1 µg/mL
same,MIC of antibiotic with 6442 at concn 0.25,GN_181 E. coli mcr-1,0.06 µg/mL
same,MIC of antibiotic with 8980 at conc 0,GN_181 E. coli mcr-1,4 µg/mL
same,MIC of antibiotic with 8980 at conc 1,GN_181 E. coli mcr-1,1 to 2 µg/mL
same,MIC of antibiotic with 8980 at conc 2,GN_181 E. coli mcr-1,0.5 to 2 µg/mL
same,MIC of antibiotic with 8980 at conc 4,GN_181 E. coli mcr-1,0.5 to 2 µg/mL
same,MIC of antibiotic with 8980 at conc 8,GN_181 E. coli mcr-1,0.5 to 2 µg/mL
same,MIC of antibiotic with 8981 at conc 0,GN_181 E. coli mcr-1,4 µg/mL
same,MIC of antibiotic with 8981 at conc 1,GN_181 E. coli mcr-1,1 to 2 µg/mL
same,MIC of antibiotic with 8981 at conc 2,GN_181 E. coli mcr-1,1 to 2 µg/mL
same,MIC of antibiotic with 8981 at conc 4,GN_181 E. coli mcr-1,0.5 to 2 µg/mL
same,MIC of antibiotic with 8981 at conc 8,GN_181 E. coli mcr-1,0.5 to 2 µg/mL
same,MIC of antibiotic with OctC4 at concn 0,GN_181 E. coli mcr-1,4 µg/mL
same,MIC of antibiotic with OctC4 at concn 0.03,GN_181 E. coli mcr-1,4 µg/mL
same,MIC of antibiotic with OctC4 at concn 0.0625,GN_181 E. coli mcr-1,2 to 4 µg/mL
same,MIC of antibiotic with OctC4 at concn 0.25,"GN_181 E. coli mcr-1, OctC4 0.25 μg/mL",0.06 to 0.25 µg/mL
